Measured values taken from patent publication US10975119B2, “Selective cysteine protease inhibitors and uses thereof” (Genesis Technologies Limited, priority 2011, dated 2021).

What was measured:
Type in all cases: biochemical
Caspase-3 = molecular target: T1, Caspase-3 (Homo sapiens, UniProt P42574); assay: Caspase-3 inhibitor screening assay (BioVision kit, DEVD-AFC); conditions: for inhibition at 10 µM: read-out: % Inhibition at 10 uM Casp3; for inhibition at 100 µM: read-out: % Inhibition at 100 uM Casp3; for IC50: read-out: IC50 Casp3
T1 construct: mixing the compounds with the respective active caspases; purchased BioVision K153-100
T1 sequence (P42574 29-175 limits assumed): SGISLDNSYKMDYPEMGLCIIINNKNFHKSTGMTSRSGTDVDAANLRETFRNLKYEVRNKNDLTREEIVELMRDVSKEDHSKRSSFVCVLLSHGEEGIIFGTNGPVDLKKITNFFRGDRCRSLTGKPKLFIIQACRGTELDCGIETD
T1 sequence (P42574 176-277 limits assumed): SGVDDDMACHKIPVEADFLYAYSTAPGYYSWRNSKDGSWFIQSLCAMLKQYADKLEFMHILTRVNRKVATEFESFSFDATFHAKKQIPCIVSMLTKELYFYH
Procedure, shortened: (§1)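 Each caspase cleaved its own AFC-labelled peptide substrate, and released AFC was read by fluorescence. % inhibition came from RFU against an uninhibited control.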

Caspase-4 = molecular target: T2, Caspase-4 (Homo sapiens, UniProt P49662); assay: Caspase-4 inhibitor screening assay (BioVision kit, LEVD-AFC); conditions: for inhibition at 10 µM: read-out: % Inhibition at 10 uM Casp4; for inhibition at 100 µM: read-out: % Inhibition at 100 uM Casp4; for IC50: read-out: IC50 Casp4
T2 construct: mixing the compounds with the respective active caspases; purchased BioVision K154-100
T2 sequence (P49662 81-270 limits assumed): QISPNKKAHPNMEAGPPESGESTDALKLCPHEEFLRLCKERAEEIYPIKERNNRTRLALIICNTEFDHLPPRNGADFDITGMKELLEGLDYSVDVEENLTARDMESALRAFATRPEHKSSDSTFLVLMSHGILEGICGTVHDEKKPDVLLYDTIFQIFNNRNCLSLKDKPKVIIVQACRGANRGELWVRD
T2 sequence (P49662 290-377 limits assumed): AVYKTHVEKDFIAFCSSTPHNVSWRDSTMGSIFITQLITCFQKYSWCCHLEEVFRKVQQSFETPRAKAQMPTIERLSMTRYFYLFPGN
Procedure, shortened: as §1

Caspase-5 = molecular target: T3, Caspase-5 (Homo sapiens, UniProt P51878); assay: Caspase-5 inhibitor screening assay (BioVision kit, WEHD-AFC); conditions: for inhibition at 10 µM: read-out: % Inhibition at 10 uM Casp5; for inhibition at 100 µM: read-out: % Inhibition at 100 uM Casp5; for IC50: read-out: IC50 Casp5
T3 construct: mixing the compounds with the respective active caspases; purchased BioVision K155-100
T3 sequence (P51878 137-327 limits assumed): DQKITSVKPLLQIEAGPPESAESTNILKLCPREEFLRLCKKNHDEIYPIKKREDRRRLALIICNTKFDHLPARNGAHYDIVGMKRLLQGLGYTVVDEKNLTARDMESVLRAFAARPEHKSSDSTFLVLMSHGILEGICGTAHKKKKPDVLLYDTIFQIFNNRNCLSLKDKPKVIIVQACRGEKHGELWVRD
T3 sequence (P51878 347-434 limits assumed): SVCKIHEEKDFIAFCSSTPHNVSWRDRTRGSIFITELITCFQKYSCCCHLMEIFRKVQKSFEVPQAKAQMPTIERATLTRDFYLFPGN
Procedure, shortened: as §1

Caspase-6 = molecular target: T4, Caspase-6 (Homo sapiens, UniProt P55212); assay: Caspase-6 inhibitor screening assay (BioVision kit, VEID-AFC); conditions: for inhibition at 10 µM: read-out: % Inhibition at 10 uM Casp6; for inhibition at 100 µM: read-out: % Inhibition at 100 uM Casp6; for IC50: read-out: IC50 Casp6
T4 construct: mixing the compounds with the respective active caspases; purchased BioVision K156-100
T4 sequence (P55212 24-179 limits assumed): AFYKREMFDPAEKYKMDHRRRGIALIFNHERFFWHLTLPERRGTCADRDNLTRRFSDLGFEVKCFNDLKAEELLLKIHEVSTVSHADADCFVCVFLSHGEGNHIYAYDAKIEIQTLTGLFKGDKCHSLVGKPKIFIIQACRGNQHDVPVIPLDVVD
T4 sequence (P55212 194-293 limits assumed): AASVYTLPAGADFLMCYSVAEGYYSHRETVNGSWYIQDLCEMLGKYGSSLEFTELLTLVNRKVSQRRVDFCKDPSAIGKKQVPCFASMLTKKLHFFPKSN
Procedure, shortened: as §1

Caspase-7 = molecular target: T5, Caspase-7 (Homo sapiens, UniProt P55210); assay: Caspase-7 inhibitor screening assay (BioVision kit, DEVD-AFC); conditions: for inhibition at 10 µM: read-out: % Inhibition at 10 uM Casp7; for inhibition at 100 µM: read-out: % Inhibition at 100 uM Casp7; for IC50: read-out: IC50 Casp7
T5 construct: mixing the compounds with the respective active caspases; purchased BioVision K157-100
T5 sequence (P55210 24-198 limits assumed): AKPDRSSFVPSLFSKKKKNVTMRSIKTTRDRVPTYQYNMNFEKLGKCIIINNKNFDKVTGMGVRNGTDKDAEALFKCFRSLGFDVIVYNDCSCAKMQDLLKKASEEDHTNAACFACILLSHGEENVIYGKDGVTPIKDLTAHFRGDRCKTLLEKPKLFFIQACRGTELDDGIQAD
T5 sequence (P55210 207-303 limits assumed): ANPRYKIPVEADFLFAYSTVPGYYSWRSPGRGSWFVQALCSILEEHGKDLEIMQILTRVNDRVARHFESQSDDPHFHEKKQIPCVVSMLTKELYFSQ
Procedure, shortened: as §1

Caspase-9 = molecular target: T6, Caspase-9 (Homo sapiens, UniProt P55211); assay: Caspase-9 inhibitor screening assay (BioVision kit, LEHD-AFC); conditions: for inhibition at 10 µM: read-out: % Inhibition at 10 uM Casp9; for inhibition at 100 µM: read-out: % Inhibition at 100 uM Casp9; for IC50: read-out: IC50 Casp9
T6 construct: purchased BioVision K159-100
T6 sequence (P55211 1-315 limits assumed): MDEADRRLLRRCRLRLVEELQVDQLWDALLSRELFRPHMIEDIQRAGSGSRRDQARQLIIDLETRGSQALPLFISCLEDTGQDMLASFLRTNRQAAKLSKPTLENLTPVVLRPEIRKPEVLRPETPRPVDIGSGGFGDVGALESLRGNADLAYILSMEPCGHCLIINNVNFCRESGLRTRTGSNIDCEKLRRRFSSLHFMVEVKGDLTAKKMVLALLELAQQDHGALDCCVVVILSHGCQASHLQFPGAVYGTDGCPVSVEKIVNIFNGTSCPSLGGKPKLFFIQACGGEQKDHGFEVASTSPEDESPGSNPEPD
T6 sequence (P55211 331-416 limits assumed): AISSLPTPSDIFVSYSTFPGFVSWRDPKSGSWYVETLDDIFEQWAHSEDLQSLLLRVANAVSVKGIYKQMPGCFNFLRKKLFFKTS
Procedure, shortened: as §1

SMILES	inhibition at 10 µM (Caspase-3) [%]	inhibition at 100 µM (Caspase-3) [%]	IC50 (Caspase-3) [µM]	inhibition at 10 µM (Caspase-4) [%]	inhibition at 100 µM (Caspase-4) [%]	IC50 (Caspase-4) [µM]	inhibition at 10 µM (Caspase-5) [%]	inhibition at 100 µM (Caspase-5) [%]	IC50 (Caspase-5) [µM]	inhibition at 10 µM (Caspase-6) [%]	inhibition at 100 µM (Caspase-6) [%]	IC50 (Caspase-6) [µM]	inhibition at 10 µM (Caspase-7) [%]	inhibition at 100 µM (Caspase-7) [%]	IC50 (Caspase-7) [µM]	inhibition at 10 µM (Caspase-9) [%]	inhibition at 100 µM (Caspase-9) [%]	IC50 (Caspase-9) [µM]
CC(C)(C)[C@H](NC(=O)c1ccc2ccccc2n1)C(=O)N1CC[C@@H]1C(=O)N[C@H](/C=C/S(C)(=O)=O)CC(=O)O [Compound 20, 2-Quinoline carbonyl-t-Leu-(Azetidine-2-carbonyl)-Asp methyl vinyl sulfone]	1	5	> 100	85	100	1.56	55	96	8.39	0	0	> 100	0	0	> 100	8	44	> 100
CC(C)[C@H](NC(=O)[C@H](Cc1cn(C)c2ccccc12)NC(=O)[C@H](CC(=O)O)NC(=O)OCc1ccccc1)C(=O)N[C@H](/C=C/S(C)(=O)=O)CC(=O)O [Compound 36, Z-Asp-Trp(N-Me)-Val-Asp-methyl vinyl sulfone]	98	100	0.09	57	99	9.02	14	50	25.4	0	19	> 100	95	99	0.85	39	87	16.9
CCOC(=O)/C=C/[C@H](CC(=O)O)NC(=O)[C@H]1CCCN1C(=O)[C@@H](NC(=O)c1ccc2ccccc2n1)C(C)(C)C [Compound 118, 2-Quinoline carbonyl-t-Leu-Pro-Asp Ethyl Vinyl Ester]	0	15	> 100	100	100	0.6	88	99	1.95	3	6	> 100	3	8	> 100	53	92	8.9
